The values below are quoted from earlier work in patent US8048927B2 (Besins Healthcare Luxembourg, priority 2004, dated 2011).

This data set concerns the target T1, estrone sulphatase (Homo sapiens, UniProt P08842).
T1 construct: estrone sulphatase activity in mammary cancer cell lines; endogenous in cells
T1 sequence (P08842 22-583): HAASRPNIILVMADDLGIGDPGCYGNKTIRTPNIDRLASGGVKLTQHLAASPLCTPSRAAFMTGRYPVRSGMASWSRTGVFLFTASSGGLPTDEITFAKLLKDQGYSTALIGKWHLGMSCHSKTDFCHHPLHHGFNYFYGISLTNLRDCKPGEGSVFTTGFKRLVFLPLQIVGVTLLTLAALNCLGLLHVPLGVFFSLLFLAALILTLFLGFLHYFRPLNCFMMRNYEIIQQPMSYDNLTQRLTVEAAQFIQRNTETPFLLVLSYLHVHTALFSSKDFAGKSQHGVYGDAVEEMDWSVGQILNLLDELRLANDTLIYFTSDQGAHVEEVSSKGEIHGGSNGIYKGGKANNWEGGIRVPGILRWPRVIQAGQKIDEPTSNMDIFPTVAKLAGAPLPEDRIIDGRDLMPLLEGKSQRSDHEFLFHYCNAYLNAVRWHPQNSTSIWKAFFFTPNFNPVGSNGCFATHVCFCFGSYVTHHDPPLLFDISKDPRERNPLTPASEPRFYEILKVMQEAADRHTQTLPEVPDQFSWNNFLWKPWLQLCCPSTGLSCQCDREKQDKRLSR
The conditions noted are these: mammary cancer cell lines; cited from earlier work.

Each structure is given as a SMILES string.

As for `CCC(=C(c1ccc(O)cc1)c1ccc(OCCN(C)C)cc1)c1ccccc1` [4-hydroxy tamoxifen, 1-[4-(2-N-dimethylaminoethoxy)phenyl]-1-(4-hydroxyphenyl)-2-phenylbut-1-ene], the “inhibitory effect on estrone sulphatase activity” value is “significant inhibitory effect”.
